Laboratory results: paper PMC11676896, “Protective Action of Cannabidiol on Tiamulin Toxicity in Humans—In Vitro Study” (International Journal of Molecular Sciences, 2024)
Structures can show the parent of a compound that is named as a salt.

Assays:
Test in all cases: MTT assay (mitochondrial activity)
Type in all cases: cell-based, human
HEK 293 cells = tested on: HEK 293 cells
Description: (§1) The cytotoxic potential of the veterinary drug and its mixtures with cannabidiol at two non-toxic concentrations: 1.56 and 3.15 µg/mL, on the human SH-SY5Y, HepG2 and HEK 293 cell lines was assessed by decreased viability of the cells within five biochemical endpoints: mitochondrial activity and lysosomal activity (MTT assays, reducing the tetrazolium dye MTT 3-(4,5-dimethylthiazol-2-yl)-2,5-diphenyltetrazolium bromide and neutral red uptake (NRU) assays), total protein content (TPC assay), cellular membrane integrity (leakage lactate dehydrogenase (LDH) assay) and DNA synthesis (the bromodeoxyuridine/5-bromo-2′-deoxyuridine incorporation into the DNA cells (BrdU) assay) after 72 h exposition. Data obtained from the measurement of the optical density in these assays were transformed to percentages in relation to the negative control group (0.1% DMSO in medium), considered to be 100% for the MTT, NRU, TPC and BrdU assays and 0% for the LDH assay. 1% Trition-X 100 solution in medium was used as the positive controls, (Figure 3).
(§2) The human neuroblastoma (SH-SY5H), hepatoma (HepG2) and kidney cells (HEK 293) cells were purchased from the American Type Culture Collection: ATCCCRL-2266,ATCC HB-8065 and ATCC CRL-1573, respectively. These cells were cultured in Minimum Essential Medium Eagle (MEME) (ATCC). The media were supplemented with 10% FBS, 1% L-glutamine (and 1% antibiotic solution (P4333 Sigma). The cells were maintained in 75 cm^2 cell culture flasks (NUNC) in a humidified incubator at 37 °C in an atmosphere of 5% CO2. The medium was refreshed every two or three days, and the cells were subcultured by 0.25% trypsin–0.02% EDTA after reaching 70–80% confluence. Single cell suspensions were prepared and adjusted to a density of 2 × 10^5 cell/mL^−1 (SH-SY5H), 1 × 10^5 cell/mL^−1 (HepG2) and 1 × 10^5 cell/mL^−1 (HEK-293). The cell suspension was transferred to 96-well plates (100 µL/well) or Lab-Tek chamber slides (8 wells) (Nunc) for staining and incubated for 24 h before the exposure to the studied compounds. Stock solutions of tiamulin fumarate and cannabidiol were prepared in DMSO and diluted with culture medium to obtain a concentration range from 1.56 to 200 µg/mL and 1.56 or 3.156 µg/mL, respectively. The selection of tiamulin concentrations was based on data from the literature and pilot studies. The final concentration of DMSO was 0.1% in the medium. The same final concentrations of the solvent and the 1% Trition-X 100 solution were used as the negative and positive controls, respectively. A total of 500 µM hydrogen peroxide (H2O2) in was used as the positive control in the DCFH assay. […] As a negative control, cultured cells were grown in the absence of studied compounds. Each concentration was tested in six replicates in three independent experiments. Cytotoxicity was assessed after 72 h of exposure of the cells to the compounds. The medium was not changed during the incubation time.
(§3) The metabolic activity of living cells was assessed by the measurement of the activity of dehydrogenases. After the incubation of the cells with the studied compounds, 10 μL of the MTT solution (5 mg/mL in PBS) was added to each well of 96-well plates and incubated. After 3 h, the MTT solution was removed, and the intracellular formazan crystals were dissolved in 100 µL DMSO. The plate was shaken for 15 min at room temperature and transferred to a Synergy 2 Multi-Mode Microplate Reader (BioTek® Instruments Inc., Winooski, VT, USA) to measure the absorbance at 570 nm, using a blank as a reference. Cytotoxicity was expressed as a percentage of the negative control (0.1% DMSO in medium).
(§4) This study was performed in three independent experiments. The obtained results are presented as mean values ± SD (standard deviation). […]

HepG2 cells = details: HepG2, 72 h
Description: as §1, §2, §3, §4

SH-SY5Y cells = details: 72 h
Description: as §1, §2, §3, §4

[1] = Homo sapiens, read-out: inhibited concentration (IC50), MTT

C=C[C@]1(C)C[C@@H](OC(=O)CSCCN(CC)CC)[C@]2(C)[C@H](C)CC[C@]3(CCC(=O)[C@H]32)[C@@H](C)[C@@H]1O [T, tiamulin fumarate]
tiamulin concentration that inhibited mitochondrial activity (HEK 293 cells; HEK-293, 72 h): 25 µg/mL
IC50 (HEK 293 cells; Homo sapiens, HEK293, 72 h, read-out: inhibited concentration (IC50), MTT): 27.5 ± 0.8 µg/mL
tiamulin concentration that inhibited mitochondrial activity (HepG2 cells): 12.5 µg/mL
IC50 (HepG2 cells; [1]): 27.4 ± 1.3 µg/mL
tiamulin concentration that inhibited mitochondrial activity (SH-SY5Y cells; significant (p ≤ 0.05) vs negative control): 6.25 µg/mL
IC50 (SH-SY5Y cells; [1]): 30.2 ± 1.8 µg/mL
